Assay results published in patent US20230295201A1 (Gilead Sciences, Inc., priority 2020, published 2023).
Read-outs that look alike come from different tables or passages of the source.

Key:
Type in all cases: cell-based
RSV strain A2 = experiment: RSV HEp-2 EC50 (infectious cytopathic cell protection assay); conditions: HEp-2 cells, RSV A2, 4 days, read-out: RSV HEp-2 EC50
Protocol: Antiviral activity against RSV is determined using an infectious cytopathic cell protection assay in HEp-2 cells. In this assay, compounds inhibiting viral infection and/or replication produce a cytoprotective effect against the virus-induced cell killing that can be quantified using a cell viability reagent. The techniques used here are novel adaptations of methods described in published literature (Chapman et al., Antimicrob Agents Chemother. 2007, 51(9):3346-53.)
HEp-2 cells are obtained from ATCC (Manassas, VI) and maintained in MEM media supplemented with 10% fetal bovine serum and penicillin/streptomycin. Cells are passaged twice a week and kept at subconfluent stage. Commercial stock of RSV strain A2 (Advanced Biotechnologies, Columbia, MD) is titered before compound testing to determine the appropriate dilution of the virus stock that generates desirable cytopathic effect in HEp-2 cells.
For antiviral tests, HEp-2 cells are grown in large cell culture flasks to near confluency but not fully so. The compounds to be tested are prediluted in DMSO in 384-well compound dilution plates, either in an 8 or 40 sample per plate standardized dose response format. 3-fold serial dilution increments of each test compound are prepared in the plates and test samples are transferred via acoustic transfer apparatus (Echo, Labcyte) at 100 nL per well into cell culture assay 384-well plates. Each compound dilution is transferred in single or quadruplicate samples into dry assay plates, which are stored until assay is ready to go. The positive and negative controls are laid out in opposite on ends of the plate in vertical blocks (1 column).
Subsequently, an infectious mixture is prepared using an appropriate dilution of virus stock previously determined by titration with cells at a density of 50,000/ml and 20 µL/well is added to test plates w/compounds via automation (uFlow, Biotek). Each plate includes negative and positive controls (16 replicates each) to create 0% and 100% virus inhibition standards, respectively. Following the infection with RSV, testing plates are incubated for 4 days in a 37° C. cell culture incubator. After the incubation, a cell viability reagent, Cell TiterGlo (Promega, Madison, WI) is added to the assay plates, which are incubated briefly, and a luminescent readout is measured (Envision, Perkin Elmer) in all the assay plates. The RSV-induced cytopathic effect, percentage inhibition, is determined from the levels of remaining cell viability. […] Various potent anti-RSV tool compounds are used as positive controls for antiviral activity.

RSV A2 = experiment: RSV NHBE EC50 (RSV A2 antiviral assay in normal human bronchial epithelial cells); conditions: NHBE cells, RSV A2, 4 days, read-out: RSV NHBE EC50
Protocol: Normal human bronchial epithelial (NHBE) cells were purchased from Lonza (Walkersville, MD, Cat #CC-2540) and cultured in Bronchial Epithelial Growth Media (BEGM) (Lonza, Walkersville, MD, Cat #CC-3170). The cells were passaged 1-2 times per week to maintain <80% confluency. The NHBE cells were discarded after 6 passages in culture.
To conduct the RSV A2 antiviral assay, NHBE cells were plated in 96-well plates at a density of 7,500 cells per well in BEGM and allowed to attach overnight at 37° C. Following attachment, 100 μL of cell culture media was removed and 3-fold serially diluted compound was added using a Hewlett-Packard D300 Digital Dispenser. The final concentration of DMSO was normalized to 0.05%. Following compound addition, the NHBE cells were infected by the addition of 100 μL of RSV A2 at a titer of 1×10^4.5 tissue culture infectious doses/mL in BEGM and then incubated at 37° C. for 4 days. […] The mixtures were incubated for 10 minutes at 25° C., and the luminescence signal was quantified on an Envision luminescence plate reader.

DENV2 replicon = experiment: DENV-2 Huh-7 Rep EC50 (replicon luminescence); conditions: read-out: DENV-2 Huh-7 Rep EC50
Protocol: In 384 well plates (Greiner, Cat #781091), compounds were acoustically transferred at 200 nl per well in a 8 compound (4 replicates) or 40 compound dose response format (3 replicates). For all plates tested, Balapiravir, GS-5734 and NITD008 were included as positive inhibition controls alongside 0% inhibition, DMSO-only negative control wells. Following compound addition, Huh-7 cells containing the DENV2 replicon construct were harvested following standard cell culture procedures and were adjusted to a concentration of 1.25E5 cells/mL in cell culture media composed of cDMEM without genticin. 40 μL of the cell stock was then added to each well for a final cell density of 5,000 cells/well. Cell and compound mixtures were incubated at 37° C./5% CO2 for 48 hours. Prior to harvesting cells, EnduRen Live Cell Substrate (Promega, Cat #E6481) was prepared by suspending 3.4 mg into 100 uL of DMSO to generate a 60 mM stock solution. The stock solution was then diluted 1:200 in pre-warmed cDMEM and 10 uL of this diluted solution was added to each well of the 384 well plates. Plates were then centrifuged at 500 rpm briefly and were placed on a plate shaker for 2 min. Following mixing, plates were incubated at […] for 1.5 hours prior to measuring luminescence on an Envision luminometer.

HRV16 = HRV16 HELA EC50 (cytopathic effect in H1-HeLa cells)
Protocol: H1-HeLa cells, cultured in complete DMEM medium containing 10% heat-inactivated FBS and 1% Penicillin/Streptomycin, were seeded in 96 well plates at 3000 cells/well one day prior to compound dosing and infection. The antiviral activity of each compound was measured in triplicate. Compounds were added directly to the cell cultures in serial 3-fold dilutions using the HP300 digital dispenser (Hewlett Packard, Palo Alto, CA) immediately prior to infection. The plates were transferred to BSL-2 containment and the appropriate dilution of virus stock, previously determined by titration and prepared in cell culture media, was added to test plates containing cells and serially diluted compounds. Each plate included 6 wells of infected untreated cells and 6 wells of uninfected cells that served as 0% and 100% virus inhibition control, respectively. Following the infection, test plates were incubated for 96 h in a tissue culture incubator set to 33° C./5% CO2. Following incubation, the H1-HeLa cells were removed from incubation and allowed to equilibrate to 25° C. Cell viability was determined by removing 100 μL of culture medium and adding 100 μL of Cell-Titer Glo viability reagent. The mixtures were incubated on a shaker for 10 minutes at 25° C., and the luminescence signal was quantified on an Envision luminescence plate reader.

[1] = human respiratory syncytial virus, 96 h
[2] = 96 h, H1-HeLa cells, 33° C., read-out: HRV16 HELA EC50
[3] = human respiratory syncytial virus, HEp-2, 96 h
[4] = human respiratory syncytial virus, NHBE, 96 h
[5] = Dengue virus, DENV2, Huh-7, 48 h, Huh-7 replicon cells, 48 hours

Structure (SMILES) | EC50 (RSV strain A2; [3]) [nM] | EC50 (RSV A2; [4]) [nM] | EC50 (DENV2 replicon; [5]) [nM] | other results
CCC(CC)COC(=O)[C@H](C)NP(=O)(N[C@@H](C)C(=O)OC1CCCCC1)OC[C@@]1(C#N)O[C@@H](c2ccc3c(N)ncnn23)[C@H](O)[C@@H]1O (mixture of isomers) [Example 30, cyclohexyl ((((2R,3S,4R,5S)-5-(4-aminopyrrolo[2,1-f][1,2,4]triazin-7-yl)-2-cyano-3,4-dihydroxytetrahydrofuran-2-yl)methoxy)(((S)-1-(2-ethylbutoxy)-1-oxopropan-2-yl)amino)phosphoryl)-L-alaninate] | – | – | – | EC50 (RSV strain A2; [1]): 844 nM; EC50 (RSV A2; [1]): 44 nM; EC50 (DENV2 replicon; Dengue virus, DENV2, Huh-7, 48 h): 60700 nM
C[C@H](NP(=O)(OC[C@@]1(C#N)O[C@@H](c2ccc3c(N)ncnn23)[C@H](O)[C@@H]1O)Oc1ccccc1)C(=O)O[C@@H]1CCN(C)C1 (mixture of isomers) [Example 61, (R)-1-methylpyrrolidin-3-yl ((((2R,3S,4R,5S)-5-(4-aminopyrrolo[2,1-f][1,2,4]triazin-7-yl)-2-cyano-3,4-dihydroxytetrahydrofuran-2-yl)methoxy)(phenoxy)phosphoryl)-L-alaninate] | 2290 | ≥ 5000 | – | EC50 (HRV16; [2]): 23200 nM
C[C@H](NP(=O)(OC[C@@]1(C#N)O[C@@H](c2ccc3c(N)ncnn23)[C@H](O)[C@@H]1O)Oc1ccccc1)C(=O)O[C@@H]1CCOC1 (mixture of isomers) [Example 68, (R)-Tetrahydrofuran-3-yl ((((2R,3S,4R,5S)-5-(4-aminopyrrolo[2,1-f][1,2,4]triazin-7-yl)-2-cyano-3,4-dihydroxytetrahydrofuran-2-yl)methoxy)(phenoxy)phosphoryl)-L-alaninate] | 247 | – | – | EC50 (HRV16; [2]): 4720 nM
C[C@H](N[P@@](=O)(OC[C@@]1(C#N)O[C@@H](c2ccc3c(N)ncnn23)[C@H](O)[C@@H]1O)Oc1ccccc1)C(=O)OC1CCCCC1 (single isomer, unassigned) [Example 5] | 2740 | 630 | – | EC50 (HRV16; [2]): 654 nM
C[C@H](NP(=O)(OC[C@@]1(C#N)O[C@@H](c2ccc3c(N)ncnn23)[C@H](O)[C@@H]1O)Oc1ccccc1)C(=O)OC1CCCCCCC1 (single isomer, unassigned) [Example 172] | – | > 516 | 31400 | EC50 (RSV strain A2): 1450 nM
C[C@H](NP(=O)(OC[C@@]1(C#N)O[C@@H](c2ccc3c(N)ncnn23)[C@H](O)[C@@H]1O)Oc1ccccc1)C(=O)OC1CCC(F)(F)CC1 (single isomer, unassigned) [Example 175] | – | – | – | EC50 (RSV strain A2): 801 nM; EC50 (RSV A2): 539 nM; EC50 (DENV2 replicon; Huh-7 replicon cells, 48 hours): > 100000 nM
CCC(CC)COC(=O)[C@H](C)NP(=O)(N[C@@H](C)C(=O)OC1CCCCC1)OC[C@@]1(C#N)O[C@@H](c2ccc3c(N)ncnn23)[C@H](O)[C@@H]1O (single isomer, unassigned) [Example 228] | – | – | – | EC50 (HRV16; H1-HeLa cells, 96 h, 33° C.; read-out: HRV16 HELA EC50): 4720 nM; EC50 (RSV A2): 2040 nM
CC(C)OC(=O)[C@H](C)NP(=O)(OC[C@@]1(C#N)O[C@@H](c2ccc3c(N)ncnn23)[C@H](O)[C@@H]1O)Oc1ccc(C(=O)N(C)C)cc1 (stereo partly drawn) [Example 43, Isopropyl ((((2R,3S,4R,5S)-5-(4-aminopyrrolo[2,1-f][1,2,4]triazin-7-yl)-2-cyano-3,4-dihydroxytetrahydrofuran-2-yl)methoxy)(4-(dimethylcarbamoyl)phenoxy)phosphoryl)-L-alaninate] | 55300 | ≥ 5000 | > 100000 | –
C[C@H](NP(=O)(OC[C@@]1(C#N)O[C@@H](c2ccc3c(N)ncnn23)[C@H](O)[C@@H]1O)Oc1ccccc1)C(=O)OCC12CCN(CC1)CC2 (stereo partly drawn) [Example 213, quinuclidin-4-ylmethyl ((((2R,3S,4R,5S)-5-(4-aminopyrrolo[2,1-f][1,2,4]triazin-7-yl)-2-cyano-3,4-dihydroxytetrahydrofuran-2-yl)methoxy)(phenoxy)phosphoryl)-L-alaninate] | 3840 | > 5000 | > 100000 | –
CCC(CC)COC(=O)CNP(=O)(NCC(=O)OCC(CC)CC)OC[C@@]1(C#N)O[C@@H](c2ccc3c(N)ncnn23)[C@H](O)[C@@H]1O [Example 226, 2-Ethylbutyl ((((2R,3S,4R,5S)-5-(4-aminopyrrolo[2,1-f][1,2,4]triazin-7-yl)-2-cyano-3,4-dihydroxytetrahydrofuran-2-yl)methoxy)((2-(2-ethylbutoxy)-2-oxoethyl)amino)phosphoryl)glycinate] | – | – | – | EC50 (RSV strain A2; [1]): 1910 nM; EC50 (RSV A2; [1]): 2550 nM
C[C@H](NP(=O)(OC[C@@]1(C#N)O[C@@H](c2ccc3c(N)ncnn23)[C@H](O)[C@@H]1O)Oc1ccccc1)C(=O)OCC1CCCCC1 (stereo partly drawn) [Example 246, cyclohexylmethyl ((((2R,3S,4R,5S)-5-(4-aminopyrrolo[2,1-f][1,2,4]triazin-7-yl)-2-cyano-3,4-dihydroxytetrahydrofuran-2-yl)methoxy)(phenoxy)phosphoryl)-L-alaninate] | 35 | 41 | 5110 | –
COC(=O)[C@H](C)NP(=O)(OC[C@@]1(C#N)O[C@@H](c2ccc3c(N)ncnn23)[C@H](O)[C@@H]1O)Oc1cccnc1 (stereo partly drawn) [Example 249, methyl ((((2R,3S,4R,5S)-5-(4-aminopyrrolo[2,1-f][1,2,4]triazin-7-yl)-2-cyano-3,4-dihydroxytetrahydrofuran-2-yl)methoxy)(pyridin-3-yloxy)phosphoryl)-L-alaninate] | – | ≥ 5000 | > 50000 | –
